Reference: patent publication US6002023A, “2-debenzoyl-2-acyl taxol derivatives and method for making same” (Virginia Tech Intellectural Properties, Inc., priority 1997, dated 1999)

Assays:
[1] = tested on: P-388 lymphocytic leukemia cells; assay: cytotoxicity, cell culture assay using P-388 lymphocytic leukemia cells, compared with taxol; assay type: cell-based; details: for ED50 /ED50 (taxol): P-388 leukemia, value of less than 1 = more active than taxol; for antineoplastic activity relative to taxol, cell culture assay (P-388 leukemia in vitro): fold activity versus taxol
Source text: Acylation of 22 with various aromatic carboxylic acids in the presence of dicyclohexylcarbodiimide and 4-pyrrolidinopyridine has led to the preparation of various 2-debenzoyl-2-acyl taxols 13. […] For details of the cell culture assay, see Abbott, B. J., "Protocol 14 of Instruction 275," National Cancer Institute, National Institutes of Health, Jan. 24, 1978.

[2] = tested on: ovarian cancer and breast cancer; details: cited from earlier work
[3] = tested on: non-small cell lung cancer; details: preliminary studies; cited from earlier work
[4] = in some assays; cited from earlier work

| SMILES | ED50 /ED50 (taxol) [1] | other results |
| --- | --- | --- |
| CC(=O)O[C@H]1C(=O)[C@@]2(C)[C@H]([C@H](OC(=O)c3cc(F)cc(F)c3)[C@]3(O)C[C@H](OC(=O)[C@H](O)[C@@H](NC(=O)c4ccccc4)c4ccccc4)C(C)=C1C3(C)C)[C@]1(OC(C)=O)CO[C@@H]1C[C@@H]2O [Compound 13t, 2-debenzoyl-2-(3,5-difluorobenzoyl)taxol] | 0.00004 | antineoplastic activity relative to taxol, cell culture assay (P-388 leukemia in vitro) [1]: 25,000 times; antineoplastic activity relative to taxol, cell culture assay (P-388 leukemia in vitro) ([1]; listed as drawing 14): about 25,000 times |
| CC(=O)O[C@H]1C(=O)[C@@]2(C)[C@H]([C@H](OC(=O)c3ccc4ccccc4c3)[C@]3(O)C[C@H](OC(=O)[C@H](O)[C@@H](NC(=O)c4ccccc4)c4ccccc4)C(C)=C1C3(C)C)[C@]1(OC(C)=O)CO[C@@H]1C[C@@H]2O [Compound 13u] | 10 | – |
| CC(=O)O[C@H]1C(=O)[C@@]2(C)[C@H]([C@H](OC(=O)c3ccoc3)[C@]3(O)C[C@H](OC(=O)[C@H](O)[C@@H](NC(=O)c4ccccc4)c4ccccc4)C(C)=C1C3(C)C)[C@]1(OC(C)=O)CO[C@@H]1C[C@@H]2O [Compound 13v] | 1.4 | – |
| CC(=O)O[C@H]1C(=O)[C@@]2(C)[C@H]([C@H](OC(C)=O)[C@]3(O)C[C@H](OC(=O)[C@H](O)[C@@H](NC(=O)c4ccccc4)c4ccccc4)C(C)=C1C3(C)C)[C@]1(OC(C)=O)CO[C@@H]1C[C@@H]2O [Compound 13w] | 28 | – |
| CC(=O)O[C@H]1C(=O)[C@@]2(C)[C@H]([C@H](OC(=O)COc3ccccc3)[C@]3(O)C[C@H](OC(=O)[C@H](O)[C@@H](NC(=O)c4ccccc4)c4ccccc4)C(C)=C1C3(C)C)[C@]1(OC(C)=O)CO[C@@H]1C[C@@H]2O [Compound 13x] | 0.7 | – |
| CC(=O)O[C@H]1C(=O)[C@@]2(C)[C@H]([C@H](OC(=O)c3ccc(F)cc3)[C@]3(O)C[C@H](OC(=O)[C@H](O)[C@@H](NC(=O)c4ccccc4)c4ccccc4)C(C)=C1C3(C)C)[C@]1(OC(C)=O)CO[C@@H]1C[C@@H]2O [Compound 13y] | 0.5 | – |
| CC(=O)O[C@H]1C(=O)[C@@]2(C)[C@H]([C@H](OC(=O)c3ccccc3)[C@]3(O)C[C@H](OC(=O)[C@H](O)[C@@H](NC(=O)c4ccccc4)c4ccccc4)C(C)=C1C3(C)C)[C@]1(OC(C)=O)CO[C@@H]1C[C@@H]2O [Taxol] | – | clinical activity [2]: excellent clinical activity; clinical activity [3]: good activity |
| CC(=O)O[C@@]12CO[C@@H]1C[C@H](O)[C@@]1(C)C(=O)[C@H](O)C3=C(C)[C@@H](OC(=O)[C@H](O)[C@@H](NC(=O)OC(C)(C)C)c4ccccc4)C[C@@](O)([C@@H](OC(=O)c4ccccc4)[C@H]21)C3(C)C [Taxotere] | – | activity relative to taxol [4]: approximately twice as active as taxol |
